Test results: PubChem BioAssay AID1259408 (Genetic Toxicology Data Bank (GENE-TOX), 2018)
Active and inactive are the calls of the source. How the calls were made is not given here.

System: GENE-TOX genotoxicity assays, various organisms and cells
Assay: GENE-TOX mutagenicity studies
Conditions: for call: Assay Type: In vivo carcinogenicity studies
[1] = Species/Cell Type: Mouse, Sex: Male, Assay Type: Sperm morphology, Assay Code: SPI-, Evaluation Type: Evaluation A (Pre-1980)
[2] = Species/Cell Type: Human, Assay Type: Sister-chromatid exchange (SCE) in vitro, Assay Code: SC1+, Evaluation Type: Evaluation B (Post-1980)
[3] = Species/Cell Type: Nonhuman, Assay Type: Sister-chromatid exchange (SCE) in vitro, Assay Code: SC2+D, Dose Response: With dose response, Evaluation Type: Evaluation B (Post-1980)
[4] = Species/Cell Type: Allium cepa, Assay Type: Chromosome aberrations, Assay Code: ALC+D, Dose Response: With dose response, Evaluation Type: Evaluation A (Pre-1980)
[5] = Species/Cell Type: Salmonella typhimurium (one or more of the five standard strains: TA98, TA100, TA1535, TA1537, and TA1538), Assay Type: Histidine reverse gene mutation, Ames assay, Assay Code: SALT, Evaluation Type: Evaluation A (Pre-1980)
[6] = Species/Cell Type: Salmonella typhimurium (one or more of the five standard strains: TA98, TA100, TA1535, TA1537, and TA1538), Assay Type: Histidine reverse gene mutation, Ames assay, Assay Code: SAL+, Evaluation Type: Evaluation A (Pre-1980)
[7] = Species/Cell Type: Arabidopsis species, Assay Type: Gene mutation, Assay Code: ARM-, Evaluation Type: Evaluation A (Pre-1980)

CSCC[C@H](N)C(=O)O
mutagenic call (Species/Cell Type: Mammalian polychromatic erythrocytes, Assay Type: Micronucleus test, chromosome aberrations, Assay Code: MNTT, Evaluation Type: Evaluation A (Pre-1980)): no conclusion
mutagenic call [1]: inactive; negative
mutagenic call (Species/Cell Type: Nonhuman, Assay Type: Sister-chromatid exchange (SCE) in vitro, Assay Code: SC2T, Evaluation Type: Evaluation B (Post-1980)): no conclusion

NC(=S)c1ccccc1
mutagenic call (Species/Cell Type: Mammalian polychromatic erythrocytes, Assay Type: Micronucleus test, chromosome aberrations, Assay Code: MNT+, Evaluation Type: Evaluation B (Post-1980)): active; positive

Nc1cc2c(cn1)[nH]c1ccccc12
mutagenic call [2]: active; positive
mutagenic call [3]: active; positive

CCN(CC)CCn1nc2c3c(c(CO)ccc31)Sc1ccccc1-2
mutagenic call (Species/Cell Type: Drosophila melanogaster, Assay Type: Sex-linked recessive lethal gene mutation, Assay Code: SRLT, Evaluation Type: Evaluation A (Pre-1980)): no conclusion
mutagenic call (Species/Cell Type: Mouse lymphoma (L5178Y) cells, Assay Type: Forward gene mutation at the thymidine kinase (TK) locus, chromosome aberrations, Assay Code: L51+, Evaluation Type: Evaluation A (Pre-1980)): active; positive
mutagenic call (Species/Cell Type: Neurospora crassa, Assay Type: Forward gene mutation, Assay Code: NEF+, Evaluation Type: Evaluation A (Pre-1980)): active; positive

COc1ccc2ccc(=O)oc2c1
mutagenic call [4]: active; positive

Oc1cccc2cc3ccc4cccc5ccc(c12)c3c45
call (Species/Cell Type: Nonhuman, Assay Code: CCGT, Evaluation Type: Evaluation A (Pre-1980)): no conclusion
mutagenic call [5]: no conclusion

CC(=O)Nc1nc(-c2cc([N+](=O)[O-])cs2)cs1
mutagenic call [6]: active; positive

N#Cc1c(Cl)cccc1Cl
mutagenic call (Species/Cell Type: Saccharomyces cerevisiae, Assay Type: Mitotic recombination or gene conversion, Assay Code: YEC-, Evaluation Type: Evaluation A (Pre-1980)): inactive; negative

C1CN1c1nc(N2CC2)nc(N2CC2)n1
mutagenic call (Species/Cell Type: Allium cepa, Assay Type: Chromosome aberrations, Assay Code: ALC+, Evaluation Type: Evaluation A (Pre-1980)): active; positive
mutagenic call [7]: inactive; negative
mutagenic call (Species/Cell Type: Drosophila melanogaster, Assay Type: Sex-linked recessive lethal gene mutation, Assay Code: SRL+, Evaluation Type: Evaluation A (Pre-1980)): active; positive
mutagenic call (Species/Cell Type: Drosophila melanogaster, Sex: Male, Assay Type: Heritable translocation test, chromosome aberrations, Assay Code: DHT+, Evaluation Type: Evaluation A (Pre-1980)): active; positive
mutagenic call (Species/Cell Type: F1 mouse, Sex: Male, Assay Type: Sperm morphology, Assay Code: SPF+, Evaluation Type: Evaluation A (Pre-1980)): active; positive
mutagenic call (Species/Cell Type: Human lymphocytes, Assay Type: Sister-chromatid exchange (SCE) in vitro, Assay Code: SCL+, Evaluation Type: Evaluation B (Post-1980)): active; positive
mutagenic call [2]: active; positive
mutagenic call (Species/Cell Type: Mammalian germ cells, Sex: Male, Assay Type: Chromosome aberrations in vivo, Assay Code: CY9+, Evaluation Type: Evaluation A (Pre-1980)): active; positive
mutagenic call (Species/Cell Type: Mammalian oocytes or early embryo, Assay Type: Chromosome aberrations in vivo, Assay Code: CYO+, Evaluation Type: Evaluation A (Pre-1980)): active; positive
mutagenic call (Species/Cell Type: Mammalian polychromatic erythrocytes, Assay Type: Micronucleus test, chromosome aberrations, Assay Code: MNT+, Evaluation Type: Evaluation A (Pre-1980)): active; positive
mutagenic call (Species/Cell Type: Mouse germ cells, Sex: Male, Assay Type: Unscheduled DNA synthesis (UDS) in vivo, DNA effects, Assay Code: UDT+, Evaluation Type: Evaluation A (Pre-1980)): active; positive
mutagenic call (Species/Cell Type: Mouse, Sex: Female, Assay Type: Spot test, gene mutation, Assay Code: MSTT, Evaluation Type: Evaluation A (Pre-1980)): no conclusion
mutagenic call (Species/Cell Type: Mouse, Sex: Male, Assay Type: Heritable translocation test, chromosome aberrations, Assay Code: HTT+, Evaluation Type: Evaluation A (Pre-1980)): active; positive
mutagenic call (Species/Cell Type: Mouse, Sex: Male, Assay Type: Specific locus test, gene mutation, Assay Code: SLT+, Evaluation Type: Evaluation A (Pre-1980)): active; positive
mutagenic call (Species/Cell Type: Mouse, Sex: Male, Assay Type: Sperm morphology, Assay Code: SPI+, Evaluation Type: Evaluation A (Pre-1980)): active; positive
mutagenic call (Species/Cell Type: Nonhuman bone marrow, Assay Type: Chromosome aberrations, in vivo, Assay Code: CY#+, Evaluation Type: Evaluation A (Pre-1980)): active; positive
call (Species/Cell Type: Nonhuman, Assay Code: CCG+L, Evaluation Type: Evaluation A (Pre-1980)): active; positive
mutagenic call [3]: active; positive
mutagenic call (Species/Cell Type: Nonhuman, Assay Type: Sister-chromatid exchange (SCE) in vivo, Assay Code: SC3+D, Dose Response: With dose response, Evaluation Type: Evaluation B (Post-1980)): active; positive
mutagenic call (Species/Cell Type: Rabbit, Sex: Male, Assay Type: Sperm morphology, Assay Code: SPRT, Evaluation Type: Evaluation A (Pre-1980)): no conclusion
mutagenic call (Species/Cell Type: Rodents, Sex: Male, Assay Type: Dominant lethal test, Assay Code: DLT+D, Dose Response: With dose response, Evaluation Type: Evaluation A (Pre-1980)): active; positive
mutagenic call (Species/Cell Type: Saccharomyces cerevisiae, Assay Type: Forward and reverse gene mutation, mitotic recombination and gene conversion, host-mediated assay, Assay Code: HME+, Evaluation Type: Evaluation A (Pre-1980)): active; positive
mutagenic call (Species/Cell Type: Saccharomyces cerevisiae, Assay Type: Forward gene mutation, Assay Code: YEF+, Evaluation Type: Evaluation A (Pre-1980)): active; positive
mutagenic call (Species/Cell Type: Saccharomyces cerevisiae, Assay Type: Mitotic recombination or gene conversion, Assay Code: YEC+, Evaluation Type: Evaluation A (Pre-1980)): active; positive
mutagenic call (Species/Cell Type: Saccharomyces cerevisiae, Assay Type: Mitotic recombination or gene conversion, Assay Code: YEH+, Evaluation Type: Evaluation A (Pre-1980)): active; positive
mutagenic call (Species/Cell Type: Saccharomyces cerevisiae, Assay Type: Reverse gene mutation, Assay Code: YER+, Evaluation Type: Evaluation A (Pre-1980)): active; positive
mutagenic call (Species/Cell Type: Vicia faba, Assay Type: Chromosome aberrations, Assay Code: VIC+, Evaluation Type: Evaluation A (Pre-1980)): active; positive

Nc1ccc(F)cc1
mutagenic call [1]: inactive; negative

c1ccc(-c2ccc(C3CO3)cc2)cc1 (centres undefined)
mutagenic call [6]: active; positive

Cc1ccc(Nc2ccc3c4c(cccc24)C(=O)c2ccccc2-3)cc1
mutagenic call [6]: active; positive

CC(C)=O
mutagenic call [7]: inactive; negative
mutagenic call (Species/Cell Type: Fischer rat embryo (RLV/1706) cells, Assay Type: Cell transformation, viral enhanced, Assay Code: CTR-, Evaluation Type: Evaluation A (Pre-1980)): inactive; negative
mutagenic call (Species/Cell Type: Human, Assay Type: Sister-chromatid exchange (SCE) in vitro, Assay Code: SC1T, Evaluation Type: Evaluation B (Post-1980)): no conclusion
mutagenic call (Species/Cell Type: Mammalian polychromatic erythrocytes, Assay Type: Micronucleus test, chromosome aberrations, Assay Code: MNT-, Evaluation Type: Evaluation B (Post-1980)): inactive; negative
mutagenic call (Species/Cell Type: Mouse embryo (AKR/ME) cells, Assay Type: Cell transformation, Assay Code: CTK-, Evaluation Type: Evaluation A (Pre-1980)): inactive; negative
mutagenic call (Species/Cell Type: Nonhuman, Assay Type: Chromosome aberrations in vitro, Assay Code: CY&-, Evaluation Type: Evaluation A (Pre-1980)): inactive; negative
mutagenic call (Species/Cell Type: Nonhuman, Assay Type: Sister-chromatid exchange (SCE) in vitro, Assay Code: SC2-, Evaluation Type: Evaluation A (Pre-1980)): inactive; negative
mutagenic call (Species/Cell Type: Salmonella typhimurium (one or more of the five standard strains: TA98, TA100, TA1535, TA1537, and TA1538), Assay Type: Histidine reverse gene mutation, Ames assay, Assay Code: SAL-, Evaluation Type: Evaluation A (Pre-1980)): inactive; negative
mutagenic call (Species/Cell Type: Syrian hamster embryo (SHE) cells, Assay Type: Cell transformation, clonal assay, Assay Code: CTC-, Evaluation Type: Evaluation A (Pre-1980)): inactive; negative

ClCCNCCCNc1c2ccccc2nc2ccccc12
mutagenic call (Species/Cell Type: Chinese hamster ovary (CHO) cells, Assay Type: Forward gene mutation at the HPRT locus, Assay Code: CHO+, Evaluation Type: Evaluation B (Post-1980)): active; positive

[O]=[Cd]
call (Species/Cell Type: Nonhuman, Assay Code: CCG+, Evaluation Type: Evaluation A (Pre-1980)): active; positive

CN(C)CCN(Cc1cccs1)c1ccccn1
mutagenic call (Species/Cell Type: Chinese hamster ovary (CHO) cells, Assay Type: Forward gene mutation at the HPRT locus, Assay Code: CHOT, Evaluation Type: Evaluation B (Post-1980)): no conclusion
mutagenic call (Species/Cell Type: Nonhuman, Assay Type: Sister-chromatid exchange (SCE) in vitro, Assay Code: SC2-, Evaluation Type: Evaluation B (Post-1980)): inactive; negative
mutagenic call (Species/Cell Type: Nonhuman, Assay Type: Sister-chromatid exchange (SCE) in vivo, Assay Code: SC3-, Evaluation Type: Evaluation B (Post-1980)): inactive; negative

CC1=CC(=C(c2ccc(N)cc2)c2ccc(N)cc2)C=CC1=N
mutagenic call (Species/Cell Type: Bacillus subtilis (H17 vs M45), Assay Type: Rec-assay, spot test, DNA effects (bacterial DNA repair), Assay Code: REWT, Evaluation Type: Evaluation A (Pre-1980)): no conclusion

C#CC(O)(c1ccccc1)c1ccccc1
mutagenic call [5]: no conclusion

C1O[C@@H]1[C@H]1CO1
mutagenic call [4]: active; positive
mutagenic call (Species/Cell Type: Arabidopsis species, Assay Type: Gene mutation, Assay Code: ARM+, Evaluation Type: Evaluation A (Pre-1980)): active; positive
mutagenic call (Species/Cell Type: Schizosaccharomyces pombe, Assay Type: Reverse gene mutation, Assay Code: YEZ+, Evaluation Type: Evaluation A (Pre-1980)): active; positive
mutagenic call (Species/Cell Type: Zea mays (corn), Assay Type: Gene mutation, Assay Code: ZEM+, Evaluation Type: Evaluation A (Pre-1980)): active; positive
